In PubChem BioAssay AID1919000 (Molecular Pharmacology Branch, DTP, NCI, 2023):
pIC50: −log10 of the molar value. Values belong to the compound of their own block, whether it stands above or below them.

Tested on: 653999-131-R-J2-PDC complex spheroids, growth % test/control
Assay: Anticancer human tumor 653999-131-R-J2-PDC patient-derived lung adenocarcinoma cell line growth inhibition [AhR]
Conditions: for pIC50: curve of first compound; for viability, T/C: stronger effect = lower value
Outline: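 Complex tumor spheroids co-cultured with HUVEC and human MSC stroma; AhR antagonists tested in combination with standard-of-care and investigational agents. Top concentration at or near clinical Cmax (else 10 microM), half-log dilutions; growth expressed as percent test/control.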

[1] = second compound 0.1 µM, first compound 0.0316 µM
[2] = second compound 0.1 µM, first compound 0.1 µM
[3] = second compound 0.1 µM, first compound 0.316 µM
[4] = second compound 0.1 µM, first compound 1 µM
[5] = second compound 0.1 µM, first compound 3.16 µM
[6] = second compound 0.1 µM, first compound 10 µM
[7] = second compound 0.316 µM, first compound 0.0316 µM
[8] = second compound 0.316 µM, first compound 0.1 µM
[9] = second compound 0.316 µM, first compound 0.316 µM
[10] = second compound 0.316 µM, first compound 1 µM
[11] = second compound 0.316 µM, first compound 3.16 µM
[12] = second compound 0.316 µM, first compound 10 µM
[13] = second compound 1 µM, first compound 0.0316 µM
[14] = second compound 1 µM, first compound 0.1 µM
[15] = second compound 1 µM, first compound 0.316 µM
[16] = second compound 1 µM, first compound 1 µM
[17] = second compound 1 µM, first compound 3.16 µM
[18] = second compound 1 µM, first compound 10 µM
[19] = second compound 3.16 µM, first compound 0.0316 µM
[20] = second compound 3.16 µM, first compound 0.1 µM
[21] = second compound 3.16 µM, first compound 0.316 µM
[22] = second compound 3.16 µM, first compound 1 µM
[23] = second compound 3.16 µM, first compound 3.16 µM
[24] = second compound 3.16 µM, first compound 10 µM
[25] = second compound 10 µM, first compound 0.0316 µM
[26] = second compound 10 µM, first compound 0.1 µM
[27] = second compound 10 µM, first compound 0.316 µM
[28] = second compound 10 µM, first compound 1 µM
[29] = second compound 10 µM, first compound 3.16 µM
[30] = second compound 10 µM, first compound 10 µM
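Note: spheroids exposed to agents for seven days.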
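Throughout, for viability, T/C: 100% = DMSO vehicle control viability.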

SMILES: CC1COCCN1c1cc(C2(S(C)(=N)=O)CC2)nc(-c2ccnc3[nH]ccc23)n1 (stereo not given) + Cc1ccccc1N=Nc1ccc(NC(=O)c2ccnn2C)c(C)c1
pIC50 (second compound 0.1 µM): 5.05 | pIC50 (second compound 0.316 µM): 5.14 | pIC50 (second compound 1 µM): 5.09 | pIC50 (second compound 3.16 µM): 5.15 | pIC50 (second compound 10 µM): 5.17 | viability, T/C [1]: 110% | viability, T/C [2]: 90.1% | viability, T/C [3]: 110% | viability, T/C [4]: 83.5% | viability, T/C [5]: 71.2% | viability, T/C [6]: 47.3% | viability, T/C [7]: 98.3% | viability, T/C [8]: 102% | viability, T/C [9]: 106% | viability, T/C [10]: 94.5% | viability, T/C [11]: 63% | viability, T/C [12]: 45.1% | viability, T/C [13]: 93.4% | viability, T/C [14]: 95.3% | viability, T/C [15]: 94.5% | viability, T/C [16]: 84% | viability, T/C [17]: 65.9% | viability, T/C [18]: 46.6% | viability, T/C [19]: 98% | viability, T/C [20]: 86% | viability, T/C [21]: 92.8% | viability, T/C [22]: 80.8% | viability, T/C [23]: 70.1% | viability, T/C [24]: 41.6% | viability, T/C [25]: 94.3% | viability, T/C [26]: 83% | viability, T/C [27]: 80.8% | viability, T/C [28]: 71.2% | viability, T/C [29]: 63.3% | viability, T/C [30]: 42.8%

SMILES: Nc1ncn(C2CC(O)C(CO)O2)c(=O)n1 (stereo not given) + Cc1cncc(-c2nc(NCCc3c[nH]c4ccccc34)c3ncn(C(C)C)c3n2)c1
pIC50 (second compound 0.1 µM): < 6.00 | pIC50 (second compound 0.316 µM): < 6.00 | pIC50 (second compound 1 µM): < 6.00 | pIC50 (second compound 3.16 µM): < 6.00 | pIC50 (second compound 10 µM): 6.68 | viability, T/C (second compound 0.1 µM, first compound 0.00316 µM): 96.2% | viability, T/C (second compound 0.1 µM, first compound 0.01 µM): 86.1% | viability, T/C [1]: 92.3% | viability, T/C [2]: 86.5% | viability, T/C [3]: 88.2% | viability, T/C [4]: 77.5% | viability, T/C (second compound 0.316 µM, first compound 0.00316 µM): 91.2% | viability, T/C (second compound 0.316 µM, first compound 0.01 µM): 94% | viability, T/C [7]: 90.8% | viability, T/C [8]: 85.1% | viability, T/C [9]: 87.7% | viability, T/C [10]: 83.6% | viability, T/C (second compound 1 µM, first compound 0.00316 µM): 106% | viability, T/C (second compound 1 µM, first compound 0.01 µM): 108% | viability, T/C [13]: 99.2% | viability, T/C [14]: 99.2% | viability, T/C [15]: 94.1% | viability, T/C [16]: 82% | viability, T/C (second compound 3.16 µM, first compound 0.00316 µM): 98.7% | viability, T/C (second compound 3.16 µM, first compound 0.01 µM): 95.2% | viability, T/C [19]: 106% | viability, T/C [20]: 98.3% | viability, T/C [21]: 96.9% | viability, T/C [22]: 90.2% | viability, T/C (second compound 10 µM, first compound 0.00316 µM): 54.6% | viability, T/C (second compound 10 µM, first compound 0.01 µM): 52.4% | viability, T/C [25]: 54% | viability, T/C [26]: 51.9% | viability, T/C [27]: 49.2% | viability, T/C [28]: 47.2%

SMILES: CCc1c2c(nc3ccc(O)cc13)-c1cc3c(c(=O)n1C2)COC(=O)[C@]3(O)CC + Cc1ccccc1N=Nc1ccc(NC(=O)c2ccnn2C)c(C)c1
pIC50 (second compound 0.1 µM): 7.94 | pIC50 (second compound 0.316 µM): 7.96 | pIC50 (second compound 1 µM): 8.02 | pIC50 (second compound 3.16 µM): 8.04 | pIC50 (second compound 10 µM): 7.99 | viability, T/C (second compound 0.1 µM, first compound 0.000949 µM): 94.8% | viability, T/C (second compound 0.1 µM, first compound 0.003 µM): 76.6% | viability, T/C (second compound 0.1 µM, first compound 0.00949 µM): 51% | viability, T/C (second compound 0.1 µM, first compound 0.03 µM): 34.7% | viability, T/C (second compound 0.1 µM, first compound 0.0949 µM): 29.7% | viability, T/C (second compound 0.1 µM, first compound 0.3 µM): 17.4% | viability, T/C (second compound 0.316 µM, first compound 0.000949 µM): 88% | viability, T/C (second compound 0.316 µM, first compound 0.003 µM): 80.6% | viability, T/C (second compound 0.316 µM, first compound 0.00949 µM): 49.7% | viability, T/C (second compound 0.316 µM, first compound 0.03 µM): 32.9% | viability, T/C (second compound 0.316 µM, first compound 0.0949 µM): 30.1% | viability, T/C (second compound 0.316 µM, first compound 0.3 µM): 17.7% | viability, T/C (second compound 1 µM, first compound 0.000949 µM): 85.6% | viability, T/C (second compound 1 µM, first compound 0.003 µM): 72.6% | viability, T/C (second compound 1 µM, first compound 0.00949 µM): 46% | viability, T/C (second compound 1 µM, first compound 0.03 µM): 37.3% | viability, T/C (second compound 1 µM, first compound 0.0949 µM): 25.4% | viability, T/C (second compound 1 µM, first compound 0.3 µM): 19.2% | viability, T/C (second compound 3.16 µM, first compound 0.000949 µM): 81.3% | viability, T/C (second compound 3.16 µM, first compound 0.003 µM): 65% | viability, T/C (second compound 3.16 µM, first compound 0.00949 µM): 51.3% | viability, T/C (second compound 3.16 µM, first compound 0.03 µM): 32.5% | viability, T/C (second compound 3.16 µM, first compound 0.0949 µM): 25.2% | viability, T/C (second compound 3.16 µM, first compound 0.3 µM): 14.7% | viability, T/C (second compound 10 µM, first compound 0.000949 µM): 73.6% | viability, T/C (second compound 10 µM, first compound 0.003 µM): 62.2% | viability, T/C (second compound 10 µM, first compound 0.00949 µM): 49.7% | viability, T/C (second compound 10 µM, first compound 0.03 µM): 41% | viability, T/C (second compound 10 µM, first compound 0.0949 µM): 27.5% | viability, T/C (second compound 10 µM, first compound 0.3 µM): 18.4%

More lines, main results first:

pIC50 (second compound 0.1 µM): < 5.00 | pIC50 (second compound 0.316 µM): < 5.00 | pIC50 (second compound 1 µM): < 5.00 | pIC50 (second compound 3.16 µM): < 5.00 | pIC50 (second compound 10 µM): < 5.00
SMILES: CC1(C)CCC(CN2CCN(c3ccc(C(=O)NS(=O)(=O)c4ccc(NCC5CCOCC5)c([N+](=O)[O-])c4)c(Oc4cnc5[nH]ccc5c4)c3)CC2)=C(c2ccc(Cl)cc2)C1 + Cc1ccccc1N=Nc1ccc(NC(=O)c2ccnn2C)c(C)c1
viability, T/C [1]: 100% | viability, T/C [2]: 99.1% | viability, T/C [3]: 103% | viability, T/C [4]: 95.1% | viability, T/C [5]: 97.7% | viability, T/C [6]: 68.7% | viability, T/C [7]: 88.8% | viability, T/C [8]: 90.6% | viability, T/C [9]: 97.7% | viability, T/C [10]: 86% | viability, T/C [11]: 92.1% | viability, T/C [12]: 64.7% | viability, T/C [13]: 99% | viability, T/C [14]: 93.1% | viability, T/C [15]: 89% | viability, T/C [16]: 99.4% | viability, T/C [17]: 91.7% | viability, T/C [18]: 73.8% | viability, T/C [19]: 99.5% | viability, T/C [20]: 90.2% | viability, T/C [21]: 94.3% | viability, T/C [22]: 90% | viability, T/C [23]: 85.6% | viability, T/C [24]: 80.8% | viability, T/C [25]: 84% | viability, T/C [26]: 94.7% | viability, T/C [27]: 83.9% | viability, T/C [28]: 88.9% | viability, T/C [29]: 81% | viability, T/C [30]: 80.5%

pIC50 (second compound 0.1 µM): 5.41 | pIC50 (second compound 0.316 µM): 5.49 | pIC50 (second compound 1 µM): 5.45 | pIC50 (second compound 3.16 µM): 5.49 | pIC50 (second compound 10 µM): 5.54
SMILES: O=C(C=Cc1cccc(S(=O)(=O)Nc2ccccc2)c1)NO + Cc1ccccc1N=Nc1ccc(NC(=O)c2ccnn2C)c(C)c1
viability, T/C [1]: 110% | viability, T/C [2]: 105% | viability, T/C [3]: 91.4% | viability, T/C [4]: 94.7% | viability, T/C [5]: 56.6% | viability, T/C [6]: 11.3% | viability, T/C [7]: 92.8% | viability, T/C [8]: 94.8% | viability, T/C [9]: 88% | viability, T/C [10]: 90.6% | viability, T/C [11]: 51.1% | viability, T/C [12]: 9.29% | viability, T/C [13]: 99.7% | viability, T/C [14]: 101% | viability, T/C [15]: 93.2% | viability, T/C [16]: 80.2% | viability, T/C [17]: 54.9% | viability, T/C [18]: 10.3% | viability, T/C [19]: 101% | viability, T/C [20]: 93.1% | viability, T/C [21]: 99% | viability, T/C [22]: 81.5% | viability, T/C [23]: 51.4% | viability, T/C [24]: 10.1% | viability, T/C [25]: 82.6% | viability, T/C [26]: 85.5% | viability, T/C [27]: 76.7% | viability, T/C [28]: 71.8% | viability, T/C [29]: 47.8% | viability, T/C [30]: 7.74%
